Measurements: patent publication US20040171616A9, “Polycyclic aryl and heteroaryl substituted 1,4-quinones useful for selective inhibition of the coagulation cascade” (priority 2000, published 2004)

What was measured:
[1] = target: T1, human factor Xa (Homo sapiens, UniProt P00742); experiment: Xa Assay; format: biochemical; settings: percent inhibition of Xa activity; test concentration not given; 60 min
T1 construct: purchased Enzyme Research Laboratories, South Bend Ind

[2] = target: T2, recombinant soluble tissue factor and recombinant human factor VIIa (Homo sapiens, UniProt P08709); experiment: TF-VIIa Assay; format: biochemical; settings: chromogenic substrate, 60 min at room temperature, OD 405 nm
T2 construct: purchased American Diagnostica, Greenwich Conn; (factor VIIa); host or cells: soluble TF made in house in E. coli
T2 sequence (P08709 213-466 limits assumed): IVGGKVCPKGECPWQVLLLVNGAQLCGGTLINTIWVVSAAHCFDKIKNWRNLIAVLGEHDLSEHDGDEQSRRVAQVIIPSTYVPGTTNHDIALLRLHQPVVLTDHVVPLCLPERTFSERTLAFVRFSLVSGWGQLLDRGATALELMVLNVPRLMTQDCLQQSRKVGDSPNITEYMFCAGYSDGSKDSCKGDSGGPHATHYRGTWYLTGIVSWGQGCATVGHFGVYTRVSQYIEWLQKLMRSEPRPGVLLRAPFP
T2 sequence (P08709 61-212 limits assumed): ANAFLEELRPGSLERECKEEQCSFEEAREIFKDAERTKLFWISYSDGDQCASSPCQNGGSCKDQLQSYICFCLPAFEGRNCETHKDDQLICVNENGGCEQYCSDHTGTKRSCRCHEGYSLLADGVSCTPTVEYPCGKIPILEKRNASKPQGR
T2 sequence (P13726 33-251 partner limits assumed): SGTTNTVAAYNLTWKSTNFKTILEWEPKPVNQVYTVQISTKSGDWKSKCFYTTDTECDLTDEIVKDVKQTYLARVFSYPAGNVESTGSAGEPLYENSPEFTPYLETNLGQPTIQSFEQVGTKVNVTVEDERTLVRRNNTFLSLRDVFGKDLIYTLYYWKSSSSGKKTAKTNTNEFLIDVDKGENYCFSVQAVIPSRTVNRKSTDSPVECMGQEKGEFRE

T1 sequence (P00742 235-488 limits assumed): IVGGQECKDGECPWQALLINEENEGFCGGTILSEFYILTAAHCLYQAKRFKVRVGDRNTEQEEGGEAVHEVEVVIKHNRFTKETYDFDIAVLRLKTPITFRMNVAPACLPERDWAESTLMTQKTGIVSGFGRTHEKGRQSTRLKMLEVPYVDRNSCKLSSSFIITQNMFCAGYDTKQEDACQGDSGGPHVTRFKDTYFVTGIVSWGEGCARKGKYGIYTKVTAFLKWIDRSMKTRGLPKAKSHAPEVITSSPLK
T1 sequence (P00742 41-179 limits assumed): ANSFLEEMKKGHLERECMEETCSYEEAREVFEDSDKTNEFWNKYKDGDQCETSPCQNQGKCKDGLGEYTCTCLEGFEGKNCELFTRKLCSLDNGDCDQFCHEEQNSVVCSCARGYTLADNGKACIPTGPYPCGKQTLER

- Factor Xa (cell printed as %, in the IC50 column) [1]: 13%
- TF-VIIA IC50 [2]: 13 µM
Structure (SMILES): N=C(N)c1ccc(CNC(=O)CC2=C(c3ccccc3)C(=O)C=C(NCCc3ccccc3)C2=O)cc1 [Example 2]
